From patent publication US4018775A, “5-Phenyl-thiazolidin-4-one derivatives” (Warner-Lambert Company, priority 1974, dated 1977)
Like-named read-outs stand apart in the source and are kept apart here.

Assays:
Format in all cases: in vivo
[1] = test system: mice with liver damage caused by α-amanitine; experiment: Anti-hepatotoxic action: survival rate of mice with liver damage caused by α-amanitine; conditions: for effect on survival rate of α-amanitine liver damaged mice (in words): in comparison with untreated control animals
Procedure: As a further animal experimental test model for the testing of the anti-hepatotoxic actions of pharmaceuticals, use is made of the liver damage in mice produced by α-amanitine.
Since it is extremely difficult to obtain α-amanitine in sufficient amounts, only a small amount of α-amanitine was available for these experiments so that the experiments could only be carried out to a very limited extent.
The influence of Compounds Nos. 1 and 4 was determined on the survival rate of mice with liver damage brought about by α-amanitine. As standard substance, there was again used silymarin which was tested by us in the dosage found to be effective by Hahn et al. (Arzneimittel Forschung, 18, 697/1968) as an anti-hepatotoxic in the same experimental procedure.
Each experimental group consisted of 25 animals. The test substances were administered daily over a period of 6 days, administration being intragastrally in a tragacanth mucilage (0.2 ml./10 g. body weight), using a stomach probe.
The intraperitoneal administration of, in each case, 0.3 mg./kg. α-amanitine took place in all experimental groups on the second day of the experiment. The dosage of α-amanitine was so chosen that the mortality rate of the untreated animals remained below 100%. The survival rate of the animals of all experimental groups was monitored daily for a total period of 14 days. The statistical comparison of the survival rate took place according to the Vierfelder […]. The comparative values obtained are set out in the following Table III: […]

[2] = Acute toxicity in the 7 day test on mice; conditions: mouse, in vivo, po; male NMRI mice, intragastral (i.g.), 7 days observation
Procedure: (§1) The acute toxicity of the thiazolidones according to the present invention was investigated on male mice (NMRI) with a body weight of 21-26 g. Before commencement of the experiment, the animals fasted for 24 hours but with water available ad libitum. There were 4 mice in each dosage group. The dosage was increased by a factor of 2. The test compounds were suspended in a 1% tragacanth mucilage and administered intragastrally by, means of a stomach probe. The amount of liquid administered was 0.2 ml./10 g. body weight. […] Silymarin was used as standard substance. The LD50 values determined are set out in the following Table I: […]

[3] = test system: male mice (NMRI); experiment: Acute toxicity in the 7 day test on mice; conditions: intragastral (i.g.), 7 days observation
Procedure: as §1

[4] = 2 × 250 mg/kg/day i.g., untreated 52%, 14 days

SMILES	survival rate of α-amanitine liver damaged animals, treated [1, 4]	effect on survival rate of α-amanitine liver damaged mice (in words) [1]	LD50 at 168 h [2]	LD50 [3]	survival rate of α-amanitine liver damaged animals, treated [1]
CCOC(=O)C=C1SC(c2ccccc2)(N2CCCCC2)C(=O)N1C (stereo not drawn) [Compound 1, ethyl 3-methyl-5-phenyl-5-N-piperidino-4-oxo-Δ^2,^α -thiazolidine-acetate]	92%	clearly increases the survival rate	> 1600 mg/kg		
CCOC(=O)C=C1SC(c2ccccc2)(N2CCCC2)C(=O)N1C (stereo not drawn) [Compound 2, ethyl 3-methyl-5-phenyl-5-N-pyrrolidino-4-oxo-Δ^2,^α -thiazolidine-acetate]			> 1600 mg/kg		
CCOC(=O)C=C1SC(CC)(c2ccccc2)C(=O)N1C (stereo not drawn) [Compound 3, ethyl 3-methyl-5-ethyl-5-phenyl-4-oxo-Δ^2,^α -thiazolidine-acetate]			~1600 mg/kg	about 1600 mg./kg.	
CCOC(=O)C=C1SC(c2ccccc2)(N2CCCCC2)C(=O)N1CC (stereo not drawn) [Compound 4, Ethyl 3-ethyl-5-phenyl-5-N-piperidino-4-oxo-Δ^2,^α -thiazolidine-acetate]	100%	statistically highly significant	> 1600 mg/kg		100%
CCOC(=O)C=C1SC(c2ccccc2)(N(C)CCO)C(=O)N1CC (stereo not drawn) [Compound 5, Ethyl 3-ethyl-5-phenyl-5-(methyl-β-hydroxyethylamino)-4-oxo-Δ^2,^α -thiazolidine-acetate]			> 1600 mg/kg		
